“Also recorded” adds a separate entry of the source.
Legend:
ear of the BALB/c mouse = test: Tolerance study: anti-irritant in preventive treatment before topical Differin gel, ear thickness (edema); format: in vivo; details: for effect of the anti-irritant on the irritation caused by Differin gel (in words): anti-irritant applied before Differin gel; for % AUC inhibition vs Differin (reduction of edema/irritation due to Differin gel): anti-irritant solution followed by Differin gel, D1-D6, AUC D2-D19
Description: The anti-irritants used are formulated, unless otherwise indicated, in an ethanol/water (50:50) vehicle at the concentrations shown in the table below.
The goal of the present study is to compare the irritant power of a reference gel, comprising 0.1% adapalene, when this treatment is preceded or not preceded by treatment with an anti-irritant.
The treatment consists of a daily topical application (20 μl) of anti-irritant, formulated in an aqueous/alcoholic vehicle (50% ethanol and 50% water by volume), on the internal face of the right ear of BALB/c mice divided into 15 groups (female mice approximately 9 weeks old), followed by a topical application (20 μl) of Differin® gel (reference gel comprising 0.1% adapalene) at the rate of one application of each formulation per day for 6 days.
Evaluation is carried out by measurements of the thickness of the ear by means of the Oditest and by clinical observation of the animals from the 2nd to 19th day.

[1] = test system: comedones on the back of the Rhino mouse; test: Comedolytic activity of Differin gel alone or preceded by an anti-irritant on the Rhino mouse; format: in vivo; details: split treatment, 18 days
Source text: The goal of the present study is to compare the comedolytic activity of Differin® gel (reference gel comprising 0.1% adapalene) whether this treatment is preceded or not preceded by a treatment with an anti-irritant.

Compound	effect of the anti-irritant on the irritation caused by Differin gel (in words) (ear of the BALB/c mouse)	effect on the comedolytic activity of Differin gel (in words) [1]	% AUC inhibition vs Differin (reduction of edema/irritation due to Differin gel) (ear of the BALB/c mouse) [%]
O=C(O)CN(CCN(CC(=O)O)CC(=O)O)CC(=O)O [EDTA]	effective in reducing the irritation		
NC(=O)NC1NC(=O)NC1=O (stereo not drawn) [allantoin, Allantoin]	effective in reducing the irritation	does not reduce the comedolytic activity	
CC1(C)[C@@H](O)CC[C@]2(C)[C@H]3C(=O)C=C4[C@@H]5C[C@@](C)(C(=O)O)CC[C@]5(C)CC[C@@]4(C)[C@]3(C)CC[C@@H]12 [enoxolone, Enoxolone, reference compound]	virtually no effect; also recorded: do not have an effect		
O.O.O.O.O.O.[Cl-].[Cl-].[Sr+2] [strontium chloride hexahydrate, Strontium chloride hexahydrate]	effective in reducing the irritation		
O=[N+]([O-])[O-].O=[N+]([O-])[O-].[Sr+2] [strontium nitrate, Strontium nitrate]	effective in reducing the irritation	does not reduce the comedolytic activity	
O=S(=O)([O-])[O-].[Zn+2] [zinc sulfate, Zinc sulfate]	a reduction in the irritation; also recorded: effective in reducing the irritation		25
Potassium disodium salt of β-glycyrrhizic acid [reference compound]	virtually no effect; also recorded: do not have an effect		
Sodium choleate	slightly reduces; also recorded: effective in reducing the irritation		9
